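Five compound concentrations were applied to cells in 96-well plates for 48 hours; endpoints were derived by simple linear interpolation of the resulting dose-response curve. GI50 = concentration required for 50% inhibition of growth. TGI: total growth inhibition.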 *1 amine or outer side, *2 acyl side, *3 side chain or, on linkers, in order; H or OH if unused. Where a SMILES comes first, the peptide text is derived from it. [ ]: non-standard residue; d: D form. The star is where a group is joined. X11 = C/C=C/CC(C)C(O)[C@H](N[*:1])C(=O)[*:2]; Decanoyl = CCCCCCCCCC(=O)*; Leu(ol) = CC(C)C[C@H](N)CO; Aib = CC(C)(N)C(=O)O
Legend:
Assay in all cases: inhibition of tumour cell growth, NCI panel, 48 h
786-0 renal = test system: 786-0 renal
A498 renal = test system: A498 renal
A549 NSCLC = test system: A549 NSCLC
ACHN renal = test system: ACHN renal
BT-549 breast = test system: BT-549 breast
CAKI-1 renal = test system: CAKI-1 renal
CCRF-CEM leukemia = test system: CCRF-CEM leukemia
COLO 205 colon = test system: COLO 205 colon
DU-145 prostate = test system: DU-145 prostate
EKVX NSCLC = test system: EKVX NSCLC
HCC-2998 colon = test system: HCC-2998 colon
HCT-116 colon = test system: HCT-116 colon
HCT-15 colon = test system: HCT-15 colon
HL-60(TB) leukemia = test system: HL-60(TB) leukemia
HOP-62 NSCLC = test system: HOP-62 NSCLC
HOP-92 NSCLC = test system: HOP-92 NSCLC
HS 578T breast = test system: HS 578T breast
HT29 colon = test system: HT29 colon
IGROV1 ovarian = test system: IGROV1 ovarian
K-562 leukemia = test system: K-562 leukemia
KM12 colon = test system: KM12 colon
LOX IMVI melanoma = test system: LOX IMVI melanoma
M14 melanoma = test system: M14 melanoma
MALME-3M melanoma = test system: MALME-3M melanoma
MCF7 breast = test system: MCF7 breast
MDA-MB-231 breast = test system: MDA-MB-231 breast
MDA-MB-435 = test system: MDA-MB-435
MOLT-4 leukemia = test system: MOLT-4 leukemia
NCI-H226 lung = test system: NCI-H226 lung

Compound: C/C=C/CC(C)C(O)[C@H](NC(=O)[C@@H]1CCCN1C(=O)C(C)(C)NC(=O)CCCCCCCCC)C(=O)NC(C)(C)C(=O)N[C@@H](CCC(N)=O)C(=O)N[C@H](CCC(N)=O)C(=O)NC(C)(C)C(=O)NC(C)(C)C(=O)N[C@@H](CCC(N)=O)C(=O)N[C@H](CC(C)C)C(=O)N[C@H](CO)CC(C)C (stereo partly drawn) (Decanoyl-[Aib]P[X11][Aib]Q[dQ][Aib][Aib]Q[dL][Leu(ol)])
- GI50 (786-0 renal): 1.76 µM
- TGI (786-0 renal): 3.33 µM
- GI50 (A498 renal): 1.99 µM
- TGI (A498 renal): 4.07 µM
- GI50 (A549 NSCLC): 2.28 µM
- GI50 (ACHN renal): 2.5 µM
- TGI (ACHN renal): 7.43 µM
- GI50 (BT-549 breast): 1.84 µM
- TGI (BT-549 breast): 3.37 µM
- GI50 (CAKI-1 renal): 2.21 µM
- TGI (CAKI-1 renal): 6.09 µM
- GI50 (CCRF-CEM leukemia): 1.87 µM
- TGI (CCRF-CEM leukemia): 4 µM
- GI50 (COLO 205 colon): 1.61 µM
- TGI (COLO 205 colon): 3.33 µM
- GI50 (DU-145 prostate): 1.46 µM
- TGI (DU-145 prostate): 2.85 µM
- GI50 (EKVX NSCLC): 1.61 µM
- TGI (EKVX NSCLC): 3.71 µM
- GI50 (HCC-2998 colon): 2.13 µM
- TGI (HCC-2998 colon): 5.25 µM
- GI50 (HCT-116 colon): 2.21 µM
- TGI (HCT-116 colon): 5.16 µM
- GI50 (HCT-15 colon): 2.44 µM
- TGI (HCT-15 colon): 7.08 µM
- GI50 (HL-60(TB) leukemia): 2.2 µM
- TGI (HL-60(TB) leukemia): 5.22 µM
- GI50 (HOP-62 NSCLC): 1.64 µM
- TGI (HOP-62 NSCLC): 3.68 µM
- GI50 (HOP-92 NSCLC): 1.66 µM
- TGI (HOP-92 NSCLC): 3.97 µM
- GI50 (HS 578T breast): 1.54 µM
- TGI (HS 578T breast): 3.28 µM
- GI50 (HT29 colon): 2.57 µM
- GI50 (IGROV1 ovarian): 2.3 µM
- TGI (IGROV1 ovarian): 7.23 µM
- GI50 (K-562 leukemia): 1.66 µM
- TGI (K-562 leukemia): 4.85 µM
- GI50 (KM12 colon): 1.84 µM
- TGI (KM12 colon): 3.68 µM
- GI50 (LOX IMVI melanoma): 1.72 µM
- TGI (LOX IMVI melanoma): 3.45 µM
- GI50 (M14 melanoma): 1.69 µM
- TGI (M14 melanoma): 3.35 µM
- GI50 (MALME-3M melanoma): 1.4 µM
- TGI (MALME-3M melanoma): 2.76 µM
- GI50 (MCF7 breast): 1.63 µM
- TGI (MCF7 breast): 3.53 µM
- GI50 (MDA-MB-231 breast): 1.63 µM
- TGI (MDA-MB-231 breast): 3.1 µM
- GI50 (MDA-MB-435): 1.68 µM
- TGI (MDA-MB-435): 3.07 µM
- GI50 (MOLT-4 leukemia): 2.1 µM
- TGI (MOLT-4 leukemia): 6.44 µM
- GI50 (NCI-H226 lung): 1.64 µM
- TGI (NCI-H226 lung): 3.97 µM

Source: PubChem BioAssay (NCI)
